Test results published in patent US5985926A, “Method for inhibiting intracellular viral replication” (Cell Therapeutics, Inc., priority 1997, dated 1999).

What was measured:
[1] = test system: CMV promoter in 293-EBNA cells; assay: AP reporter gene expression from CMV promoter, 293-EBNA cells stably transfected with pCMV.AP; assay type: cell-based, human cytomegalovirus; human cells; settings: Homo sapiens, 293-EBNA; FIG. 8; read-out: concentration inhibiting AP activity by 50% (CMV assay)
Method: An assay for measuring the anti-viral activity of the compounds involves testing the abilities of the compounds to inhibit gene expression directed by specific viral promoters in cell lines. Specifically, a plasmid construct, pCMV.AP, using the human cytomegalovirus (CMV) enhancer and promoter to direct the expression of the secreted human placental alkaline phosphatase reporter gene were transformed into a tumor cell line (e.g., 293-EBNA cells). The cultured cells were treated with various concentrations of the compounds. The expression of the alkaline phosphatase (AP) reporter gene in the individual cultures can then be measured by following the change in absorbance at A405 of the cell conditioned media in the presence of a suitable substrate (e.g., ortho-nitrophenol phosphate) (Berger et al., Gene 66:1,1988).
The construction of expression vectors for secreted placental alkaline phosphatase (sPAP) was performed by obtaining a mammalian episomal expression vector pBL3, derived from the plasmids pMEP4 and pCEP4 (Invitrogen Corp). Specifically, a 600 bp Spe I--Kpn I fragment spanning the CMV promoter from pCEP4 and a 9500 bp Xba I--Kpn I vector fragment from pMEP4 were isolated and ligated together to form pBL3. Full length sPAP cDNA was amplified by PCR using the plasmid pGEM4Z/SEAP (ATCC) as template with primers 5'-[…]-3' (SEQ ID NO. 1) and 5'-[…]-3' (SEQ ID NO. 2). The PCR product was then digested with Xba I and Sal I and inserted between the Nhe I site and the Xho I site within the multiple cloning region of pBL3. The resulting plasmid was designated as PCMV.AP.

[2] = Viability of 293-EBNA cells, Alamar Blue; assay type: cell-based, human; settings: human, 293-ebna cells; read-out: LD50 (CMV assay, FIG. 9)
Method: (§1) Cell viability was measured by a colorimetric assay that uses Alamar Blue dye (Alamar, Inc.) to report cell proliferation, viability and cytotoxicity. This vital dye indicates cell activity by serving as substrate for mitochrondrial dehydrogenases for the formation of soluble dyes which can be quantitated by determining the difference in absorbance between A570 and A600 using a plate reader.
as §1, with “[…]” for “colorimetric”
This example illustrates that CT2576 suppressed both tat-dependent and TNF-α induced HIV-LTR transcription with an IC50 of approximately 10 μM. Study of the effects of CT2576 on cell toxicity was performed using the Alamar Blue™ dye (Alamar Biosciences) according to the manufacturer's instructions. CT2576 was not toxic to 293-EBNA cells at concentrations up to 35 μM. To show CT2576 can inhibit HIV expression, CT2576 was tested for the ability to block HIV p24 antigen expression in chronically or acutely infected cells. Specifically, CT2576 inhibited the TNF-α and IL-6 induced and the constitutive expression of HIV in the chronically infected U1 cells and in peripheral blood lymphocytes (PBL) freshly infected with a HIV strain from a clinical isolate with an IC50 of approximately 1 μM. Pharmacological inhibition of synthesis of selected PL may therefore be a novel therapeutic approach to suppression of HIV replication.

NFκB = NFκB activation in 293tat cells, electrophoretic mobility shift assay; assay type: cell-based, human; settings: CT2576 12 μM, TNF-α 40 ng/ml or IL-1β 1 ng/ml
Method: (§2) Nuclear extracts (A) from 293tat cells were tested by EMSA for activation of NFκB. A radiolabeled 40-mer covering the NFκB sequences in the HIV promoter was used as a probe. Cells were incubated with CT2576 at 12 μM, human TNF-α at 40 ng/ml or IL-1β at 1 ng/ml, or pre-incubated for 30 min. with CT2576 and then stimulated with TNF-α or IL-1β for 18 hr prior to making extracts. RNA was extracted from 293tat cells (B) after treatment with CT2576 without or with TNF-α or IL-1β for 18 hr. Northern blots analysis were performed using probes derived from AP cDNA and G3PDH cDNA as a control for normalization of mRNA level. AP activity was determined in cell supernatants from the various samples.
(§3) NFκB binding activity in nuclear extracts (Dignam et al., Nucleic Acids Res. 11:1475-1489, 1983) of cells was measured by electrophoretic mobility-shift assay (EMSA) (Carthew et al., Cell 43:439-448, 1985) using 5'-labeled double-stranded synthetic DNA with two NF-κB motifs. Northern blot analysis was performed with total RNA run on 1% agarose/formaldehyde gel and probed with ^32 P-labeled cDNA of AP and glyceraldehyde-3-phosphate dehydrogenase (G3PDH).

AP mRNA in 293tat cells = assay: AP mRNA level in 293tat cells, Northern blot; assay type: cell-based, human; settings: with TNF-α or IL-1β
Method: as §2, §3

[3] = test system: phosphatidic acid (PA) subspecies in 293tat cells; assay: PA composition of 293tat cells by HPLC; assay type: cell-based, human
Method: One must first quantitatively and qualitatively separate PAs from the other lipids found in serum by a chemical extraction of lipids and high performance liquid chromatography (HPLC) to separate and detect PAs. […] Briefly, the method of Bligh et al. involves an organic extraction of lipids from biological tissue homogenates or fluids. One volume of sample and three volumes of methanol:chloroform (2:1) are vigorously shaken for 2 min. One volume of chloroform is added and then shaken vigorously for 30 sec. One volume of water is added and then shaken vigorously for 30 sec. The mixture is filtered and the upper aqueous layer is discarded. The lower organic layer contains a mixture of lipid classes. The method of Folch et al. involves the extraction of lipids from biological tissue homogenates or body fluids. One volume of sample plus 20 volumes of chloroform:methanol (2:1) are vigorously shaken for 2 min. The mixture is filtered and an amount of 0.1 N KCl equal to 20% of the extraction mixture volume is added and the mixture is shaken vigorously for 2 min. The aqueous and organic phases are allowed to separate. The upper aqueous layer is discarded. The lower organic layer contains a mixture of lipid classes. […] This method involves separation of lipids into their major classes by normal phase (silica) high performance liquid chromatography (HPLC). A 5 micron, 25 cm×0.45 cm silica HPLC column is connected to a binary solvent delivery system followed with a UV detector. The lipid sample is injected on the column and a solvent gradient is run at 1.0 ml/min. The solvent gradient is hexane:isopropanol:water in the proportions 3:4:0.75 run isocratically for 3 min, then ramped to hexane:isopropanol:water in the proportions 3:4:1.4 in 15 min, then run isocratically at the same proportions for 15 min. Detection is at 206 nm.
One of the steps after cell activation involves the hydrolysis of phosphatidylcholine (PC), the major phospholipid of cellular membranes, by phospholipases C and D, leading to the generation of second messengers, such as PA and DG, in the signal transduction cascade.

[4] = test system: HIV-LTR promoter in 293-EBNA cells; assay: AP reporter expression in 293-EBNA cells with HIV-LTR plasmids, TNF-α stimulation; assay type: cell-based, HIV; human cells
Method: FIG. 14 illustrates the effect of tat and TNF-α on HIV-LTR-mediated reporter gene expression in 293-EBNA cells. The y-axis refers to the relative amount of AP reporter gene activity present in the culture media of 293-EBNA cells after transient transfection with various plasmids. Freshly trypsinized 293-EBNA cells at 10^4 cells per sample were transfected with 2 μg of either pHIV.AP, pHIV2.AP, or pHIV3.AP alone or in combination with pSV2tat72 or pHIV.tat using the cationic lipid DOTAP. The plasmids pHIV.AP, pHIV2.AP, and pHIV3.AP contain nucleotides -453 to +80, -107 to +80, and -80 to +80 of the HIV-LTR sequence respectively. Transfected cells were plated in 96-well microtiter plates at 2,000 cells per well. The cell culture media were changed 24 hr later into new medium. The samples were incubated for another 24 hr with or without TNF-α (20 ng/ml). 2 μl of medium from each well was used for AP assay. The height of each column represents the mean of triplicate samples with error bar indicating the standard deviation of the mean.
AP reporter gene activity expressed in 293-EBNA cells transfected with either pHIV.AP alone or in combination with pSV2tat72, pHIV.tat or with TNF-α stimulation is shown in FIG. 14. The plasmid pHIV.AP contains the full-length HIV-LTR sequence that extends from nucleotides -453 to +80. The expression level of AP was low using the pHIV.AP construct alone, indicating the presence of negative regulatory elements in the HIV-LTR sequence. Induction with TNF-α increased the AP expression level by about 4 fold. The AP expression level increased by 15 to 70 fold in the presence of the tat expression plasmids pHIV.tat or pSV2tat72. […] TNF-α and tat in combination enhanced the AP expression level by two fold when using the pSV2tat72 construct, and by ten fold when using the pHIV.tat construct, but the final levels of AP activity were similar.

[5] = test system: HIV-LTR promoter (tat transactivation) in 293-EBNA cells; assay: AP reporter gene expression from HIV-LTR promoter with tat expression vector, 293-EBNA cells; assay type: cell-based, HIV; human cells
Source text: The plasmid construct, pHIV.AP, using the human immunodeficiency virus (HIV) long terminal repeat (LTR) promoter (derived from pU3R-III CAT, Sodroski et al., Science 227:171, 1985) to direct the expression of the sPAP reporter gene, was made by replacing the CMV promoter region from pCMV.AP with the HIV-LTR promoter. PHIV.AP was co-transfected with pSV2tat72, an expression vector for the 72 amino acids tat protein from HIV (Frankel and Pabo, Cell 55:1189-1193, 1988), into 293-EBNA cells (Invitrogen). The cultured cells were treated with various concentrations of the compounds. The expression of the alkaline phosphatase (AP) reporter gene in the individual cultures was measured by following change in absorbance at 405 nm of the cell conditioned media in the presence of a suitable substrate (e.g., ortho-nitrophenol phosphate) (Berger et al., Gene 66:1-10, 1988).
We set up a cell-based system with a cell line cotransfected with an expression plasmid using HIV-1-LTR promoter to direct synthesis of AP reporter gene and an expression plasmid to direct synthesis of the first 72 amino acids of tat protein. Plasmid pREP7 (Invitrogen) was converted to pREP7b by deleting 2,040 bp EBNA-1 coding region and by replacing the pBR322 origin of replication (ori) with the pBluescript KS (Stratagene) ori region. The cDNA for secreted placental alkaline phosphatase (AP) was generated by PCR with the primers (5'-[…]-3')(SEQ ID NO. 3) and (5'-[…]-3') (SEQ ID NO. 4)using the plasmid pGEM-4Z/PLAP489 (American Type Culture Collection) as the template. The 2,000 bp Xba I-Sal I fragment obtained was ligated into a Nhe I/Xho I vector derived from pREP7b to generate the plasmid pREP7b.AP. The 44 bp Xba I-Bgl II fragment from plasmid pMEP4 (Invitrogen)and the 36 bp BamH I-Kpn I fragment from pREP7 were ligated into the Xba I-Kpn I vector fragment from pREP7b.AP to generate the plasmid pMCS.AP. The 720 bp Xho I-Hind III fragment encoding the HIV-LTR promoter from the plasmid pU3R-III-CAT (Sodroski et al., Science 227:171-173, 1985) was ligated into the Xho I-Hind III vector fragment of PMCS.AP to generate the plasmid pHIV.AP. The CMV promoter was derived from the 600 bp Spe I-Asp718 I fragment from pCEP4 (Invitrogen). The 360 bp SV40 early promoter fragments were produced from pSV2tat72 (Frankel et al., Cell 55:1189-1193,1988) by PCR using the primers (5'-[…]-3') (SEQ ID NO. 5) and (5'-[…]-3') (SEQ ID NO. 6). The 480 bp phosphoglycerate kinase (PGK) promoter fragment was amplified from human placental genomic DNA (Promega, Madison, Wis.) based on published sequence (Pfeifer et al., Science 246:810-813, 1990) using the primers (5'-[…]-3') (SEQ ID NO. 7) and (5'-[…]-3') (SEQ ID NO. 8). The above fragments were ligated into the Xba I-Asp718 I vector fragment of pHIV.AP to generate pHIV2.AP, pHIV3.AP, pCMV.AP, pSVE.AP and PPGK.AP respectively. The tat-expression plasmid directed by HIV-LTR promoter, pHIV.tat, was generated by inserting the 400 bp EcoRV-HindIII fragment from pHIV.AP into the PvuII-HindIII vector fragment from pSV2tat72 (Frankel et al., Cell 55:1189-1193, 1988).
Transient transfections with various expression plasmids were performed on a human kidney embryonic cell line 293-EBNA (Invitrogen) using the cationic lipid DOTAP (Boehringer Mannheim). The cell culture media were changed 24 hr after transfection into a serum-free medium AIM V (Life Technologies) before addition of compounds or TNF-α (PeproTech) at the appropriate concentrations. AP activity measured by a colorimetric assay (Berger et al., Gene 66:1-10, 1988) was performed 19-24 hr later.

[6] = Viability of 293-EBNA cells (dye not stated); settings: human

## CCCCCCCCNCC(O)CCCCCCCCCN1C(=O)Cc2ccccc2C1=O (stereo not drawn) [CT1115, N-(11-octylamino-10-hydroxyundecyl)homophthalimide]
[1]
  IC50: 2 to 6 µM
[2]
  CC50: ~5 µM

## TNF-α
NFκB
  activation of NFκB: NFκB was activated
AP mRNA in 293tat cells
  AP transcript / mRNA steady-state level: induction of AP transcripts
[3]; TNF-α 45 sec
  increase of C14-16 saturated acyl chain PA peak: up to 80%
[3]; TNF-α 45 sec (from 5.4%)
  C14-16 saturated PA peak, share of total far UV absorbing lipids after TNF-α: 9%
[4]; TNF-α and tat in combination, pHIV.tat construct
  fold enhancement of AP expression by TNF-α with pHIV.tat: ten
[4]; TNF-α and tat in combination, pSV2tat72 construct
  fold enhancement of AP expression by TNF-α with pSV2tat72: two
[4]; pHIV.AP alone
  fold increase of AP expression level by TNF-α: about 4 fold

## CCCCCCCCCCCCNCC(O)CCCCCCCn1c(=O)c2c(ncn2C)n(C)c1=O (stereo not drawn) [CT2573, 1-(9-dodecylamino-8-hydroxynonyl)-3,7-dimethylxanthine]
[5]; 293-EBNA cells, HIV promoter, in words
  inhibition of AP expression (HIV-LTR promoter): did not affect AP activity
[5]; Homo sapiens, 293-EBNA, read-out: concentration inhibiting AP expression by 50%
  IC50: 1 to 4 µM
[6]
  CC50: ~5 µM
